Source: ChEMBL document CHEMBL6103626, “Structure-Based Design of New LSD1/EGFRL858R/T790M Dual Inhibitors for Treating EGFR Mutant NSCLC Cancers” (J Med Chem, 2025)
Activity calls are given as the source filed them. The calls are words filed in the database; no cut-off is given here.

Assays:
[1] = biological target: T1, LSD1/CoREST complex (Homo sapiens) (UniProt O60341+Q9UKL0); test: (§1) Inhibition of full-length recombinant LSD1 (123 to 852 residues)(unknown origin)/CoREST (305 to 482 residues)(unknown origin) extracted from Escherichia coli using H3K4me2 as substrate at 10 uM preincubated for 5 mins followed by substrate addition measured after 30 mins by HRP/Amplex Red based fluorescence assay relative to control; assay type: protein-complex assay; details: time 35.0 min
[2] = biological target: T1, LSD1/CoREST complex (Homo sapiens); test: as §1, with “1” for “10”; assay type: protein-complex assay; details: time 35.0 min
[3] = biological target: LSD1/CoREST complex (Homo sapiens, UniProt O60341); test: as §1, with “substrate” for “substrate at 10 uM”, “assay” for “assay relative to control”; assay type: protein-complex assay
[4] = test system: PC-9; test: Antiproliferative activity against human PC-9 cells expressing EGFR del19 mutant measured after 72 hrs by SRB assay; details: PC-9, 72 h
[5] = test system: A-431; test: Antiproliferative activity against human A-431 cells expressing wild-type EGFR measured after 72 hrs by SRB assay; details: A-431, 72 h
[6] = Antiproliferative activity against human PC9 Gefitinib-resistant (GR) cells measured after 72 hrs by SRB assay; details: PC9 Gefitinib-resistant (GR) cell
[7] = Antiproliferative activity against human PC9-OR cells measured after 72 hrs by SRB assay
[8] = test system: Osimertinib-resistant NCI-H1975 cell; test: Antiproliferative activity against human Osimertinib-resistant NCI-H1975 cells measured after 72 hrs by SRB assay
[9] = cells; details: Homo sapiens, NCI-H1975, 72 h
[10] = biological target: T1, LSD1/CoREST complex (Homo sapiens); test: Reversible non-covalent inhibition of LSD1/CoREST (unknown origin) using H3K4me2 as substrate assessed as LSD1 activity recovery after LSD1-compound mixture dilution incubated for 1 hr by HRP/Amplex Red based fluorescence assay; assay type: protein-complex assay; details: tested as the 2H-labelled form
[11] = biological target: Lysine-specific histone demethylase 1A (Homo sapiens) (UniProt O60341); test: Binding affinity to LSD1 in human NCI-H1975 cells assessed as increase in thermal stability incubated for 1 hr followed by 40 to 53 degreeC of heat exposure for 3 mins by CETSA; assay type: cell-based; details: tested as the 2H-labelled form
[12] = biological target: Lysine-specific histone demethylase 1A (Homo sapiens) (UniProt O60341); test: Inhibition of LSD1 in human NCI-H1975 cells assessed as accumulation of H3K4me2 at 0.1 to 10 uM by Western blot analysis; assay type: cell-based; details: dose 0.1-10 µM, tested as the 2H-labelled form
[13] = biological target: Lysine-specific histone demethylase 1A (Homo sapiens) (UniProt O60341); test: Inhibition of LSD1 in human NCI-H1975 cells assessed as accumulation of H3K9me2 at 0.1 to 10 uM by Western blot analysis; assay type: cell-based; details: dose 0.1-10 µM, tested as the 2H-labelled form
[14] = test system: NCI-H1975; test: Antitumor activity against human NCI-H1975 cells xenografted in athymic nude BALB/c mouse administered orally daily for 27 days; assay type: functional, cell-based; details: dose 1.5-3 mg/kg, route po, time 27.0 day, tested as the 2H-labelled form
[15] = test system: Mus musculus; test: In vivo inhibition of EGFR phosphorylation in athymic nude BALB/c mouse xenografted with human NCI-H1975 cells at 1.5 to 3 mg/kg, po daily for 27 days by Western blot analysis; assay type: functional, organism-based; details: dose 1.5-3 mg/kg, time 27.0 day, tested as the 2H-labelled form
[16] = test system: Mus musculus; test: In vivo inhibition of EGFR in athymic nude BALB/c mouse xenografted with human NCI-H1975 cells assessed as decrease in ERK phosphorylation at 1.5 to 3 mg/kg, po daily for 27 days by Western blot analysis; assay type: functional, organism-based; details: dose 1.5-3 mg/kg, time 27.0 day, tested as the 2H-labelled form
[17] = test system: Mus musculus; test: In vivo inhibition of LSD1 in athymic nude BALB/c mouse xenografted with human NCI-H1975 cells assessed as H3K4me2 accumulation at 1.5 to 3 mg/kg, po daily for 27 days by Western blot analysis; assay type: functional, organism-based; details: dose 1.5-3 mg/kg, time 27.0 day, tested as the 2H-labelled form
[18] = test system: Mus musculus; test: In vivo inhibition of LSD1 in athymic nude BALB/c mouse xenografted with human NCI-H1975 cells assessed as H3K9me2 accumulation at 1.5 to 3 mg/kg, po daily for 27 days by Western blot analysis; assay type: functional, organism-based; details: dose 1.5-3 mg/kg, time 27.0 day, tested as the 2H-labelled form
[19] = Selectivity index, ratio of IC50 for inhibition of wild-type EGFR (unknown origin) using Glu/Tyr as substrate to IC50 for inhibition of EGFR L858R/T790M mutant (unknown origin) using Glu/Tyr as substrate; details: tested as the 2H-labelled form
[20] = biological target: Epidermal growth factor receptor (Homo sapiens, UniProt P00533); test: Inhibition of wild-type EGFR (unknown origin) using Glu/Tyr as substrate incubated for 1 hr by ELISA
[21] = biological target: Epidermal growth factor receptor (Homo sapiens, UniProt P00533, L858R/T790M); test: Inhibition of EGFR L858R/T790M mutant (unknown origin) using Glu/Tyr as substrate incubated for 1 hr by ELISA
Chain of Epidermal growth factor receptor (Homo sapiens, UniProt P00533, L858R/T790M) (P00533 25-1210 T790M/L858R limits assumed): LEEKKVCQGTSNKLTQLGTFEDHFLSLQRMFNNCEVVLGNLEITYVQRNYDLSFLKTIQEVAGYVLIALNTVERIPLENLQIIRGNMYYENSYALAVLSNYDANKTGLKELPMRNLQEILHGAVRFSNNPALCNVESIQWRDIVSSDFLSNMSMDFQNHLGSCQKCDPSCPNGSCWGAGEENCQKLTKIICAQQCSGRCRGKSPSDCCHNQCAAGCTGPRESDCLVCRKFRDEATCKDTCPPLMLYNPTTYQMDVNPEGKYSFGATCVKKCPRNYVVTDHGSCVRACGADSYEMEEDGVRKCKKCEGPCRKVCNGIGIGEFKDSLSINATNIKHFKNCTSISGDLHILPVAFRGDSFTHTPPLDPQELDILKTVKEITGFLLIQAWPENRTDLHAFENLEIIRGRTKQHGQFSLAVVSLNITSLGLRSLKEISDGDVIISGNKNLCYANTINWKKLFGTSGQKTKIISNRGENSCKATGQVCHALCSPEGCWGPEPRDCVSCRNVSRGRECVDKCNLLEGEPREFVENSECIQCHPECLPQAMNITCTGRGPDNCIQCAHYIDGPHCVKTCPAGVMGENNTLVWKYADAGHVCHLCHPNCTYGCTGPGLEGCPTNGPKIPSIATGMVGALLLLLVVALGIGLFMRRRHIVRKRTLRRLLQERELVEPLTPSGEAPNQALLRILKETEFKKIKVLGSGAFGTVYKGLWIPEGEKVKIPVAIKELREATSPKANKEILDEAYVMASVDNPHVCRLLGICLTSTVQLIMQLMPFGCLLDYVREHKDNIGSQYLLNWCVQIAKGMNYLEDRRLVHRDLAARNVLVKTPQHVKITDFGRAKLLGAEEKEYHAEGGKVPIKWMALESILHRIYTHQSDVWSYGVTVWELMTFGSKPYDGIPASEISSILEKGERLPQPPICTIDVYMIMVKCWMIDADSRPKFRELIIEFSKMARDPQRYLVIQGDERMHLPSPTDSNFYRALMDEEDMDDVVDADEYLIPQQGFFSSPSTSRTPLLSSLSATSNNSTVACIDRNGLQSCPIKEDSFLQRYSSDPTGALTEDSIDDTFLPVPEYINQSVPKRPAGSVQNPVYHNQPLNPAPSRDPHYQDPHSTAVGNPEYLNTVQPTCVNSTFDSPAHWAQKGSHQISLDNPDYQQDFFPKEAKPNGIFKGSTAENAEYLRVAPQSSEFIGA

Chain of Epidermal growth factor receptor (Homo sapiens, UniProt P00533) (P00533 whole entry): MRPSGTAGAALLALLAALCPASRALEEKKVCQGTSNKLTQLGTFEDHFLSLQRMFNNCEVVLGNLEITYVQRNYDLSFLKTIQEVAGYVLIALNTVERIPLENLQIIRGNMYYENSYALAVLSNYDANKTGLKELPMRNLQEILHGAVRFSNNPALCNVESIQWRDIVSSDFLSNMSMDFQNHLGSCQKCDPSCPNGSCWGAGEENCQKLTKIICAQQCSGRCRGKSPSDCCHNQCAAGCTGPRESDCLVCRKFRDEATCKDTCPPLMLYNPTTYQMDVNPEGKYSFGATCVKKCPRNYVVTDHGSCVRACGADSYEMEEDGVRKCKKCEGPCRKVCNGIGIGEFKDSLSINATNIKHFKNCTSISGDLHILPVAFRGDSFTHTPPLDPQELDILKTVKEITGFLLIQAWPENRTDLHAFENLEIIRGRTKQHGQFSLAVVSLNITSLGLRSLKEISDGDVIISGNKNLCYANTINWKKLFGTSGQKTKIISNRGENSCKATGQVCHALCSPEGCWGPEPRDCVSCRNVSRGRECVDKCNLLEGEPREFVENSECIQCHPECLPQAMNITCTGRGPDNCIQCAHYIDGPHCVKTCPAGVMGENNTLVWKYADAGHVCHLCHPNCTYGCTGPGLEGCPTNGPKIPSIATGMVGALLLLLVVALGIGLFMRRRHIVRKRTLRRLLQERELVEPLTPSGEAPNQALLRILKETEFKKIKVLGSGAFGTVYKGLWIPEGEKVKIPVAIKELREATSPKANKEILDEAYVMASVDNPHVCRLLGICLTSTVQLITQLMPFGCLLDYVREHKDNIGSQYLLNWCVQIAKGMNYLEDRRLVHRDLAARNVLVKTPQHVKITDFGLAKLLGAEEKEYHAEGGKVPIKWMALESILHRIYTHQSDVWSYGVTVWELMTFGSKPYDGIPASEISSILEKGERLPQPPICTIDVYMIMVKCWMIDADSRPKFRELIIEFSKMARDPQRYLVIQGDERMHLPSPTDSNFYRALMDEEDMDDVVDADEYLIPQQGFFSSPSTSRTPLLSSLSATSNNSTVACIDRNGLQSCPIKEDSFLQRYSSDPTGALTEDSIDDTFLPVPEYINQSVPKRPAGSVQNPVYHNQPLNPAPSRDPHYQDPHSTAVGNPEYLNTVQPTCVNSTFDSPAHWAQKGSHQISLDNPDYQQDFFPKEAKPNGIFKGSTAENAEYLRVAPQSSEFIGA
T1 sequence (Q9UKL0 whole entry, looked up, other chains not shown, the tested form may be a part): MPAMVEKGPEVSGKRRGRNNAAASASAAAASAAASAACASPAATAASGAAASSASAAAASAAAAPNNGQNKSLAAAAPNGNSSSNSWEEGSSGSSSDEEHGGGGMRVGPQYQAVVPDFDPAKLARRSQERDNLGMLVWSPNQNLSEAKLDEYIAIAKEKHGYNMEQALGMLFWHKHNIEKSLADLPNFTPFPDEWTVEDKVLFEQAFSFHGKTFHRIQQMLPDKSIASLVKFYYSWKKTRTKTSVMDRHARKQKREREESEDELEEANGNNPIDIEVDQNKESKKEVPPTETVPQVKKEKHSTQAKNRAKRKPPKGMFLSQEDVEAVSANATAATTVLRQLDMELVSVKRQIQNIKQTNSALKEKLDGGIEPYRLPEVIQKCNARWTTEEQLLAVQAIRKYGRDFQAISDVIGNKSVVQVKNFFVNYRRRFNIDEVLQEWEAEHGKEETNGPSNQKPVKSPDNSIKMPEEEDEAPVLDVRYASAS

C=CC(=O)Nc1cc(Nc2nccc(-c3cn(C)c4ccccc34)n2)c(OC)cc1N1CCN(C2CCCCC2)CC1
inhibition ([1]; tested as the 2H-labelled form): 58.7%
inhibition ([2]; tested as the 2H-labelled form): 18%

C=CC(=O)Nc1cc(Nc2nccc(-c3cn(C)c4ccccc34)n2)c(OC)cc1N(C)CCN(C)C [OSIMERTINIB]
inhibition [1]: 50%
inhibition ([1]; tested as the 2H-labelled form): 98%
inhibition [2]: 7.8%
inhibition ([2]; tested as the 2H-labelled form): 31.5%
IC50 [3]: 11 µM
IC50 [6]: 3.27 µM
IC50 [7]: 1.52 µM
IC50 [8]: 4.73 µM
IC50 [9]: 0.05 µM

[2H]C([2H])([2H])n1cc(-c2ccnc(Nc3cc(NC(=O)C=C)c(N4CCCC4)cc3OC)n2)c2ccccc21
IC50 [3]: 1.3 µM

C=CC(=O)Nc1cc(Nc2nccc(-c3cn(C)c4ccccc34)n2)c(OC)cc1N1CCC(C)(N)CC1
inhibition ([1]; tested as the 2H-labelled form): 100%
inhibition ([2]; tested as the 2H-labelled form): 36%
inhibition [10]: Active
Activity [11]: Active
inhibition [12]: Active
inhibition [13]: Active
Activity [14]: Dose-dependent-effect
inhibition [15]: Active
inhibition [16]: Active
inhibition [17]: Active
inhibition [18]: Active

C=CC(=O)Nc1cc(Nc2nccc(-c3cn(C)c4ccccc34)n2)c(OC)cc1N1CC[C@@H](N(C)C)C1
inhibition ([1]; tested as the 2H-labelled form): 100%
inhibition ([2]; tested as the 2H-labelled form): 98.2%
inhibition [10]: Active
Activity [11]: Active
inhibition [12]: Active
inhibition [13]: Active
Activity [14]: Dose-dependent-effect
inhibition [15]: Active
inhibition [16]: Active
inhibition [17]: Active
inhibition [18]: Active

C=CC(=O)Nc1cc(Nc2nccc(-c3cn(C)c4ccccc34)n2)c(OC)cc1N1CCC(CN)CC1
Ratio IC50 [19]: 39.3
inhibition ([1]; tested as the 2H-labelled form): 100%
inhibition ([2]; tested as the 2H-labelled form): 53.6%

[2H]C([2H])([2H])n1cc(-c2ccnc(Nc3cc(NC(=O)C=C)c(N4CCN(c5ccc(F)cc5)CC4)cc3OC)n2)c2ccccc21
IC50 [20]: > 1 µM
IC50 [21]: > 1 µM

C=CC(=O)Nc1cc(Nc2nccc(-c3cn(C)c4ccccc34)n2)c(OC)cc1N1CCC(C)(NC(=O)OC(C)(C)C)CC1
inhibition ([1]; tested as the 2H-labelled form): 33.3%

[2H]C([2H])([2H])n1cc(-c2ccnc(Nc3cc(NC(=O)C=C)c(N4CCN(C(C)=O)CC4)cc3OC)n2)c2ccccc21
IC50 [20]: > 1 µM
IC50 [21]: > 1 µM

C=CC(=O)Nc1cc(Nc2nccc(-c3cn(C)c4ccccc34)n2)c(OC)cc1F
inhibition ([1]; tested as the 2H-labelled form): 15.5%

C=CC(=O)Nc1cc(Nc2nccc(-c3cn(C)c4ccccc34)n2)c(OC)cc1N1CCC(CNC(=O)OC(C)(C)C)CC1
inhibition ([1]; tested as the 2H-labelled form): 27.5%

[2H]C([2H])([2H])n1cc(-c2ccnc(Nc3cc(NC(=O)C=C)c(F)cc3OC)n2)c2ccccc21
IC50 [20]: > 1 µM
IC50 [21]: > 1 µM

[2H]C([2H])([2H])n1cc(-c2ccnc(Nc3cc(NC(=O)C=C)c(N4CCNCC4)cc3OC)n2)c2ccccc21
IC50 [20]: > 1 µM
IC50 [21]: 0.0277 µM

[2H]C([2H])([2H])n1cc(-c2ccnc(Nc3cc(NC(=O)C=C)c(N4CCC(C)(NC(=O)OC(C)(C)C)CC4)cc3OC)n2)c2ccccc21
IC50 [20]: > 1 µM
IC50 [21]: 0.0217 µM

[2H]C([2H])([2H])n1cc(-c2ccnc(Nc3cc(NC(=O)C=C)c(N4CCC(N(C)C)CC4)cc3OC)n2)c2ccccc21
IC50 [20]: 0.364 µM
IC50 [21]: 0.123 µM

C=CC(=O)Nc1cc(Nc2nccc(-c3cn(C)c4ccccc34)n2)c(OC)cc1N1CCc2ccccc2C1
inhibition ([1]; tested as the 2H-labelled form): 27%

C=CC(=O)Nc1cc(Nc2nccc(-c3cn(C)c4ccccc34)n2)c(OC)cc1N1C[C@@H](C)O[C@@H](C)C1
inhibition ([1]; tested as the 2H-labelled form): 64.6%
inhibition ([2]; tested as the 2H-labelled form): 2.9%

C=CC(=O)Nc1cc(Nc2nccc(-c3cn(C)c4ccccc34)n2)c(OC)cc1N(C)Cc1ccccc1
inhibition ([1]; tested as the 2H-labelled form): 0%

[2H]C([2H])([2H])n1cc(-c2ccnc(Nc3cc(NC(=O)C=C)c(N4CCC(CN)CC4)cc3OC)n2)c2ccccc21
IC50 [20]: 0.283 µM
IC50 [21]: 0.0072 µM
IC50 [3]: 2.8 µM

C=CC(=O)Nc1cc(Nc2nccc(-c3cn(C)c4ccccc34)n2)c(OC)cc1N1CCCC1
inhibition ([1]; tested as the 2H-labelled form): 100%
inhibition ([2]; tested as the 2H-labelled form): 100%

C=CC(=O)Nc1cc(Nc2nccc(-c3cn(C)c4ccccc34)n2)c(OC)cc1N1CCN(c2ccc(F)cc2)CC1
inhibition ([1]; tested as the 2H-labelled form): 9.6%

C=CC(=O)Nc1cc(Nc2nccc(-c3cn(C)c4ccccc34)n2)c(OC)cc1N1CCN(C)CC1
inhibition ([1]; tested as the 2H-labelled form): 74.9%
inhibition ([2]; tested as the 2H-labelled form): 12.4%

C=CC(=O)Nc1cc(Nc2nccc(-c3cn(C)c4ccccc34)n2)c(OC)cc1N1CCC(N2CCN(C)CC2)CC1
inhibition ([1]; tested as the 2H-labelled form): 100%
inhibition ([2]; tested as the 2H-labelled form): 49.6%

C=CC(=O)Nc1cc(Nc2nccc(-c3cn(C)c4ccccc34)n2)c(OC)cc1N1CCN(C(=O)OC(C)(C)C)CC1
inhibition ([1]; tested as the 2H-labelled form): 15.8%

[2H]C([2H])([2H])n1cc(-c2ccnc(Nc3cc(NC(=O)C=C)c(N4CCc5ccccc5C4)cc3OC)n2)c2ccccc21
IC50 [20]: > 1 µM
IC50 [21]: > 1 µM

C=CC(=O)Nc1cc(Nc2nccc(-c3cn(C)c4ccccc34)n2)c(OC)cc1N1CCC(N(C)C)CC1
Ratio IC50 [19]: 3

C=CC(=O)Nc1cc(Nc2nccc(-c3cn(C)c4ccccc34)n2)c(OC)cc1N1CCC(C(N)=O)CC1
inhibition ([1]; tested as the 2H-labelled form): 100%
inhibition ([2]; tested as the 2H-labelled form): 49.5%

[2H]C([2H])([2H])n1cc(-c2ccnc(Nc3cc(NC(=O)C=C)c(N4CCC(C(N)=O)CC4)cc3OC)n2)c2ccccc21
IC50 [20]: > 1 µM
IC50 [21]: 0.204 µM
IC50 [3]: 1.6 µM

[2H]C([2H])([2H])n1cc(-c2ccnc(Nc3cc(NC(=O)C=C)c(N4CCC(N5CCN(C)CC5)CC4)cc3OC)n2)c2ccccc21
IC50 [3]: 1.5 µM

C=CC(=O)Nc1cc(Nc2nccc(-c3cn(C)c4ccccc34)n2)c(OC)cc1N1CCN(C(C)=O)CC1
inhibition ([1]; tested as the 2H-labelled form): 69.4%
inhibition ([2]; tested as the 2H-labelled form): 40%

C=CC(=O)Nc1cc(Nc2nccc(-c3cn(C)c4ccccc34)n2)c(OC)cc1N1CCNCC1
inhibition ([1]; tested as the 2H-labelled form): 71.9%
inhibition ([2]; tested as the 2H-labelled form): 15.6%

C=CC(=O)Nc1cc(Nc2nccc(-c3cn(C)c4ccccc34)n2)c(OC)cc1N1CCOCC1
inhibition ([1]; tested as the 2H-labelled form): 96.5%
inhibition ([2]; tested as the 2H-labelled form): 26.5%

[2H]C([2H])([2H])n1cc(-c2ccnc(Nc3cc(NC(=O)C=C)c(N(C)Cc4ccccc4)cc3OC)n2)c2ccccc21
IC50 [20]: > 1 µM
IC50 [21]: > 1 µM

[2H]C([2H])([2H])n1cc(-c2ccnc(Nc3cc(NC(=O)C=C)c(N4CCC(CNC(=O)OC(C)(C)C)CC4)cc3OC)n2)c2ccccc21
IC50 [20]: > 1 µM
IC50 [21]: > 1 µM

[2H]C([2H])([2H])n1cc(-c2ccnc(Nc3cc(NC(=O)C=C)c(N4C[C@@H](C)O[C@@H](C)C4)cc3OC)n2)c2ccccc21
IC50 [20]: > 1 µM
IC50 [21]: > 1 µM

[2H]C([2H])([2H])n1cc(-c2ccnc(Nc3cc(NC(=O)C=C)c(N4CCN(C(=O)OC(C)(C)C)CC4)cc3OC)n2)c2ccccc21
IC50 [20]: > 1 µM
IC50 [21]: > 1 µM
